Laboratory results from patent USRE37781E1, “Substituted cyclic carbonyls and derivatives thereof useful as retroviral protease inhibitors” (DuPont Pharmaceuticals Company, priority 1991, dated 2002).
Read-outs that look alike come from different tables or passages of the source.

How the values were obtained:
[1] = target: single-chain tethered dimer of HIV protease (Human immunodeficiency virus 1, UniProt P04585); assay: biochemical; assay type: biochemical; design: fused on or other part: A second copy of the same protease unit is joined to the first by a short peptide tether, giving one polypeptide
[2] = system: HIV-1 (RF) in MT-2 cells; assay: microbe, parasite or virus in culture; assay type: cell-based
Procedure: DNA Plasmids and in vitro RNA transcripts:
Plasmid pDAB 72 containing both gag and pol sequences of BH10 (bp 113-1816) cloned into PTZ 19R was prepared according to Erickson-Viitanen et al. AIDS Research and Human Retroviruses 1989, 5, 577. The plasmid was linearized with Bam HI prior to the generation of in vitro RNA transcripts using the Riboprobe Gemini system II kit (Promega) with T7 RNA polymerase. Synthesized RNA was purified by treatment with RNase free DNAse (Promega), phenol-chloroform extraction, and ethanol precipitation. RNA transcripts were dissolved in water, and stored at −70° C. The concentration of RNA was determined from the A260.
Biotinylated capture probes were purified by HPLC after synthesis on an Applied Biosystems (Foster City, Calif.) DNA synthesizer by addition of biotin to the 5′ terminal end of the oligonucleotide, using the biotin-phosphoramidite reagent of Cocuzza, Tet. Lett. 1989, 30, 6287. The gag biotinylated capture probe (5-biotin-[…] 3′) was complementary to nucleotides 889-912 of HXB2 and the pol biotinylated capture probe (5′-biotin-[…] 3′) was complementary to nucleotides 2374-2395 of HXB2. Alkaline phosphatase conjugated oligonucleotides used as reporter probes were prepared by Syngene (San Diego, Calif.). The pol reporter probe (5′ […] 3′) was complementary to nucleotides 2403-2425 of HXB2. The gag reporter probe (5′ […] 3′) was complementary to nucleotides 950-973 of HXB2. All nucleotide positions are those of the GenBank Genetic Sequence Data Bank as accessed through the Genetics Computer Group Sequence Analysis Software Package (Devereau Nucleic Acids Research 1984, 12, 387). The reporter probes were prepared as 0.5μM stocks in 2× SSC (0.3M NaCl, 0.03M sodium citrate), 0.05M Tris pH 8.8, 1 mg/mL BSA. The biotinylated capture probes were prepared as 10 μM stocks in water.
Streptavidin coated plates:
Nunc-immunomodule microtiter plate strips were coated by addition of 200 μL of streptavidin (30 ug/mL, Scripps, La Jolla, Calif.) in freshly prepared 10 mM sodium carbonate (pH 9.6). Plates were incubated overnight at 4° C. Streptavidin solution was aspirated from the wells and a blocking buffer composed of phosphate buffered saline (PBS), 20 mg/mL bovine serum albumin (crystalline, nuclease and protease free, Calbiochem) and 100 mg/mL lactose (Sigma) was added to the plates for 3 hrs at room temperature. Blocking buffer was removed from the wells, which were allowed to dry overnight at room temperature and subsequently stored at 4° C. in zip lock bags with desiccant. For the majority of the compound evaluation experiments, streptavidin coated plates were obtained from Du Pont Biotechnology Systems (Boston, Mass.).
MT-2, CEM, and H9 cells were maintained in RPMI 1640 supplemented with 5% fetal calf serum (FCS), 2 mM L-glutamine and 50 μg/mL gentamycin, all from Gibco. Laboratory strains of HIV-1 (RF, MN and IIIB) were propagated in H9 cells in the same medium. Virus stocks were prepared approximately 1 month after acute infection of H9 cells by clarification of the tissue culture medium and storage of aliquots at −70° C. […] Each aliquot of virus stock used for infection was thawed only once. In some cases, infected H9 cells were shifted to Dulbecco's modified Eagle's medium 3-10 days before collection of virus in order to generate virus stocks in medium with low biotin content. Clinical isolates of HIV that had been passaged once in MT-2 cells were used to infect fresh MT-2 cells in RPMI medium. Three days after infection, cells were pelleted, resuspended and culture continued in Dulbecco's modified Eagle's medium as above. Virus stocks of clinical isolates were prepaid 10-15 days after infection when cytopathic effects were apparent in the culture.

[3] = Table 2d, HIV protease inhibition, HPLC method, read-out: HPLC K1
[4] = read-out: HPLC K1, Table 2d, class symbols
[5] = Human immunodeficiency virus 1, MT2, 48 h, Table 2d, class symbols, read-out: IC90
[6] = read-out: HPLC K1, Table 2d, HIV protease inhibition, HPLC method
[7] = Human immunodeficiency virus 1, MT2, 48 h, Table 2d, HIV RNA assay, read-out: IC90

O=C(NCCN1CCOCC1)c1cccc(CN2C(=O)N(Cc3cccc(C(=O)NCCN4CCOCC4)c3)C(Cc3ccccc3)C(O)C(O)C2Cc2ccccc2)c1 (stereo not drawn) [15XU]
Ki [1, 3]: < 10 nM
IC90 ([2]; Table 2d, HIV RNA assay): +++ (+++=<10 μg/mL)

O=C(NCCCCCN1C(=O)N(CCCCCNC(=O)Nc2ccccc2)C(Cc2ccccc2)C(O)C(O)C1Cc1ccccc1)Nc1ccccc1 (stereo not drawn) [15ER]
Ki [1, 3]: 10 to 1000 nM
IC90 ([2]; Table 2d, HIV RNA assay): ++/+ (The ++/+ is used in the cases where an IC90 was determined to be >50 μg/mL)

NC(=NO)c1cccc(CN2C(=S)N(Cc3cccc(C(N)=NO)c3)[C@H](Cc3ccccc3)[C@H](O)[C@@H](O)[C@H]2Cc2ccccc2)c1 [Example 27L]
Ki ([1]; Table 2q, read-out: HPLC Ki): < 10 nM
IC90 ([2]; Table 2q): +++ (+++=<10 μg/mL)

CN1C(Cc2ccccc2)C(O)C(O)C(Cc2ccccc2)N(C)S1(=O)=O (stereo not drawn) [23V]
Ki ([1]; Table 2m, read-out: HPLC Ki): > 1000 nM
IC90 ([2]; Table 2m): ++/+ (The ++/+ is used in the cases where an IC90 was determined to be >50 μg/mL)

NCCCCCCN1C(=O)N(CCCCCCN)C(Cc2ccccc2)C(O)C(O)C1Cc1ccccc1 (stereo not drawn) [Example 12A]
Ki [1, 4]: > 1000 nM
IC90 [2, 5]: > 100 µg/mL

O=C1N(CCCCCCO)C(Cc2ccccc2)C(O)C(O)C(Cc2ccccc2)N1Cc1ccc2ccccc2c1 (stereo not drawn) [Example 15VQ]
Ki [1, 4]: < 10 nM
IC90 [2, 5]: < 10 µg/mL

O=C1N(Cc2ccc(F)c(CO)c2)C(Cc2ccccc2)C(O)C(O)C(Cc2ccccc2)N1Cc1ccc(F)c(CO)c1 (stereo not drawn) [15EG]
Ki [1, 3]: < 10 nM
IC90 ([2]; Table 2d, HIV RNA assay): +++ (+++=<10 μg/mL)

O=C(NCCN1CCOCC1)c1cccc(CN2C(=O)N(Cc3cccc(-c4cc[nH]n4)c3)C(Cc3ccccc3)C(O)C(O)C2Cc2ccccc2)c1 (stereo not drawn) [Example 15BT]
Ki [1, 6]: < 10 nM
IC90 [2, 7]: < 10 µg/mL

O=C(NCCCCCN1C(=O)N(CCCCCNC(=O)c2ccccc2)C(Cc2ccccc2)C(O)C(O)C1Cc1ccccc1)c1ccccc1 (stereo not drawn) [15EX]
Ki [1, 3]: 10 to 1000 nM
IC90 ([2]; Table 2d, HIV RNA assay): ++/+ (The ++/+ is used in the cases where an IC90 was determined to be >50 μg/mL)

O=C1CCC(CN2C(=O)NC(Cc3ccccc3)C(O)C(O)C2Cc2ccccc2)CC1 (stereo not drawn) [Example 15VA]
Ki [1, 4]: 10 to 1000 nM
IC90 [2, 5]: > 50 µg/mL

[N-]=[N+]=NCCCCCN1C(=O)N(CCCCCN=[N+]=[N-])C(Cc2ccccc2)C(O)C(O)C1Cc1ccccc1 (stereo not drawn) [15EM]
Ki [1, 6]: 10 to 1000 nM
IC90 [2, 7]: < 10 µg/mL

COc1cccc(CC2NC(=O)NC(Cc3cccc(OC)c3)C(O)C2O)c1 (stereo not drawn) [20AO]
Ki ([1]; Table 2i, read-out: HPLC Ki): 10 to 1000 nM
IC90 ([2]; Table 2i): ++ (++=10 to 100 μg/mL)

O=C1N(Cc2cccc(O)c2)C(CCc2ccccc2)[C@@H](O)[C@@H](Cc2ccccc2)N1Cc1cccc(O)c1 (stereo partly drawn) [Example 8I]
Ki ([1]; read-out: Ki (HPLC), Table 1e, cells marked (HPLC)): < 10 nM
IC90 ([2]; Human immunodeficiency virus 1, MT2, Table 1e, read-out: IC90): < 10 µg/mL

CC(=O)Oc1cccc(CN2C(=O)N(Cc3cccc(OC(C)=O)c3)C(Cc3ccccc3)C(O)C(O)C2Cc2ccccc2)c1 (stereo not drawn) [10F]
Ki [1, 4]: 10 to 1000 nM
IC90 [2, 5]: < 10 µg/mL

Nc1cccc(CN2C(=O)N(CC3CC3)C(Cc3ccccc3)C(O)C(O)C2Cc2ccccc2)c1 (stereo not drawn) [15G]
Ki [1, 4]: < 10 nM
IC90 [2, 5]: < 10 µg/mL

CCCCC(O)CN1C(=O)NC(Cc2ccccc2)C(O)C(O)C1Cc1ccccc1 (stereo not drawn) [Example 15VM]
Ki [1, 4]: > 1000 nM
IC90 [2, 5]: > 50 µg/mL

N#Cc1cccc(CN2C(=O)N(Cc3cccc(-c4cc[nH]n4)c3)C(Cc3ccccc3)C(O)C(O)C2Cc2ccccc2)c1 (stereo not drawn) [Example 15BV]
Ki [1, 6]: < 10 nM
IC90 [2, 7]: < 10 µg/mL

CN(C)CCNC(=O)c1cccc(CN2C(=O)N(CC3CC3)C(Cc3ccccc3)C(O)C(O)C2Cc2ccccc2)c1 (stereo not drawn) [15YA]
Ki [1, 3]: < 10 nM
IC90 ([2]; Table 2d, HIV RNA assay): +++ (+++=<10 μg/mL)
